#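 Tested at 5 concentrations; 48 h exposure; 96-well plates; endpoints linearly interpolated, else capped at highest concentration. TGI is the concentration that stops growth completely.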
# Key:
# Assay in all cases: NCI tumour cell line growth inhibition, 48 h
# COLO 205 colon = system: COLO 205 colon
# MALME-3M melanoma = system: MALME-3M melanoma
# NCI-H522 lung = system: NCI-H522 lung
# NCI-H23 lung = system: NCI-H23 lung
# OVCAR-5 ovarian = system: OVCAR-5 ovarian
# SK-MEL-28 melanoma = system: SK-MEL-28 melanoma
# SN12C renal = system: SN12C renal
# CAKI-1 renal = system: CAKI-1 renal
# HCC-2998 colon = system: HCC-2998 colon
# NCI-H460 lung = system: NCI-H460 lung
# SF-268 CNS = system: SF-268 CNS
# OVCAR-3 ovarian = system: OVCAR-3 ovarian
# M19-MEL melanoma = system: M19-MEL melanoma
# UACC-257 melanoma = system: UACC-257 melanoma
# M14 melanoma = system: M14 melanoma
# OVCAR-8 ovarian = system: OVCAR-8 ovarian
# 786-0 renal = system: 786-0 renal
# SK-OV-3 ovarian = system: SK-OV-3 ovarian
# LXFL 529 NSCLC = system: LXFL 529 NSCLC
# LOX IMVI melanoma = system: LOX IMVI melanoma
# U251 CNS = system: U251 CNS
# SF-295 CNS = system: SF-295 CNS
# SF-539 CNS = system: SF-539 CNS
# SK-MEL-2 melanoma = system: SK-MEL-2 melanoma
# SK-MEL-5 melanoma = system: SK-MEL-5 melanoma
# SNB-75 CNS = system: SNB-75 CNS
# KM20L2 colon = system: KM20L2 colon
# TK-10 renal = system: TK-10 renal
# HT29 colon = system: HT29 colon
# SW-620 colon = system: SW-620 colon
# OVCAR-4 ovarian = system: OVCAR-4 ovarian
# A549 NSCLC = system: A549 NSCLC
# HCT-116 colon = system: HCT-116 colon
# DLD-1 colon = system: DLD-1 colon
# ACHN renal = system: ACHN renal
# UACC-62 melanoma = system: UACC-62 melanoma
# HOP-18 NSCLC = system: HOP-18 NSCLC
# K-562 leukemia = system: K-562 leukemia
# RPMI-8226 leukemia = system: RPMI-8226 leukemia
# A498 renal = system: A498 renal
# HL-60(TB) leukemia = system: HL-60(TB) leukemia
# SNB-19 CNS = system: SNB-19 CNS
# DMS 114 small cell lung = system: DMS 114 small cell lung
# EKVX NSCLC = system: EKVX NSCLC
# HOP-92 NSCLC = system: HOP-92 NSCLC
# DMS 273 small cell lung = system: DMS 273 small cell lung
# CCRF-CEM leukemia = system: CCRF-CEM leukemia
# SR leukemia = system: SR leukemia
# SNB-78 CNS = system: SNB-78 CNS
# MOLT-4 leukemia = system: MOLT-4 leukemia
# UO-31 renal = system: UO-31 renal
# KM12 colon = system: KM12 colon
# RXF 393 renal = system: RXF 393 renal
# HCT-15 colon = system: HCT-15 colon
# NCI-H226 lung = system: NCI-H226 lung
# XF 498 CNS = system: XF 498 CNS
# HOP-62 NSCLC = system: HOP-62 NSCLC
# RXF-631 renal = system: RXF-631 renal
# IGROV1 ovarian = system: IGROV1 ovarian
smiles,measurement,setting,value
Nc1c(-c2ccccc2-c2c(N)[n+]([O-])c3ccccc3[n+]2[O-])[n+]([O-])c2ccccc2[n+]1[O-],TGI,COLO 205 colon,23.6 µM
same,TGI,MALME-3M melanoma,> 100 µM
same,TGI,NCI-H522 lung,6.87 µM
same,TGI,NCI-H23 lung,> 100 µM
same,TGI,OVCAR-5 ovarian,> 100 µM
same,TGI,SK-MEL-28 melanoma,> 100 µM
same,TGI,SN12C renal,> 100 µM
same,TGI,CAKI-1 renal,> 100 µM
same,TGI,HCC-2998 colon,> 100 µM
same,TGI,NCI-H460 lung,18.5 µM
same,TGI,SF-268 CNS,> 100 µM
same,TGI,OVCAR-3 ovarian,> 100 µM
same,TGI,M19-MEL melanoma,60.3 µM
same,TGI,UACC-257 melanoma,35.2 µM
same,TGI,M14 melanoma,30.1 µM
same,TGI,OVCAR-8 ovarian,81.5 µM
same,TGI,786-0 renal,> 100 µM
same,TGI,SK-OV-3 ovarian,> 100 µM
same,TGI,LXFL 529 NSCLC,> 100 µM
same,TGI,LOX IMVI melanoma,> 100 µM
same,TGI,U251 CNS,> 100 µM
same,TGI,SF-295 CNS,> 100 µM
same,TGI,SF-539 CNS,71.7 µM
same,TGI,SK-MEL-2 melanoma,> 100 µM
same,TGI,SK-MEL-5 melanoma,31 µM
same,TGI,SNB-75 CNS,> 100 µM
same,TGI,KM20L2 colon,> 100 µM
same,TGI,TK-10 renal,> 100 µM
same,TGI,HT29 colon,> 100 µM
same,TGI,SW-620 colon,> 100 µM
same,TGI,OVCAR-4 ovarian,> 100 µM
same,TGI,A549 NSCLC,> 100 µM
same,TGI,HCT-116 colon,74.6 µM
same,TGI,DLD-1 colon,> 100 µM
same,TGI,ACHN renal,> 100 µM
same,TGI,UACC-62 melanoma,26.5 µM
same,TGI,HOP-18 NSCLC,> 86 µM
same,TGI,K-562 leukemia,> 71.8 µM
same,TGI,RPMI-8226 leukemia,63.4 µM
same,TGI,A498 renal,71.4 µM
same,TGI,HL-60(TB) leukemia,> 31.3 µM
same,TGI,SNB-19 CNS,> 100 µM
same,TGI,DMS 114 small cell lung,27.2 µM
same,TGI,EKVX NSCLC,57.1 µM
same,TGI,HOP-92 NSCLC,> 100 µM
same,TGI,DMS 273 small cell lung,38.7 µM
same,TGI,CCRF-CEM leukemia,> 28.4 µM
same,TGI,SR leukemia,37.3 µM
same,TGI,SNB-78 CNS,> 100 µM
same,TGI,MOLT-4 leukemia,8.42 µM
same,TGI,UO-31 renal,> 100 µM
same,TGI,KM12 colon,50.2 µM
same,TGI,RXF 393 renal,> 100 µM
same,TGI,HCT-15 colon,> 100 µM
same,TGI,NCI-H226 lung,> 100 µM
COc1ccc(-c2oc(/C=N/NC(N)=S)c([N+](=O)[O-])c2-c2ccc(OC)c(OC)c2)cc1OC,TGI,COLO 205 colon,> 100 µM
same,TGI,MALME-3M melanoma,35.9 µM
same,TGI,NCI-H522 lung,65.3 µM
same,TGI,NCI-H23 lung,> 100 µM
same,TGI,OVCAR-5 ovarian,> 100 µM
same,TGI,SK-MEL-28 melanoma,86.1 µM
same,TGI,SN12C renal,> 100 µM
same,TGI,CAKI-1 renal,> 100 µM
same,TGI,SF-268 CNS,58 µM
same,TGI,OVCAR-3 ovarian,47.9 µM
same,TGI,M19-MEL melanoma,63.1 µM
same,TGI,XF 498 CNS,> 100 µM
same,TGI,UACC-257 melanoma,> 100 µM
same,TGI,M14 melanoma,67.9 µM
same,TGI,OVCAR-8 ovarian,81.8 µM
same,TGI,786-0 renal,> 100 µM
same,TGI,SK-OV-3 ovarian,69.3 µM
same,TGI,LXFL 529 NSCLC,63.8 µM
same,TGI,LOX IMVI melanoma,66 µM
same,TGI,HOP-62 NSCLC,> 100 µM
same,TGI,SF-295 CNS,53.4 µM
same,TGI,SF-539 CNS,67.6 µM
same,TGI,SK-MEL-2 melanoma,35.2 µM
same,TGI,SNB-75 CNS,72.3 µM
same,TGI,KM20L2 colon,92.4 µM
same,TGI,TK-10 renal,> 100 µM
same,TGI,HT29 colon,51.7 µM
same,TGI,SW-620 colon,> 100 µM
same,TGI,OVCAR-4 ovarian,61.6 µM
same,TGI,RXF-631 renal,> 100 µM
same,TGI,A549 NSCLC,> 100 µM
same,TGI,HCT-116 colon,41.1 µM
same,TGI,DLD-1 colon,> 100 µM
same,TGI,ACHN renal,76.3 µM
same,TGI,IGROV1 ovarian,> 100 µM
same,TGI,UACC-62 melanoma,78.5 µM
same,TGI,RPMI-8226 leukemia,41.5 µM
same,TGI,HL-60(TB) leukemia,55 µM
same,TGI,SNB-19 CNS,97 µM
same,TGI,DMS 114 small cell lung,46.8 µM
same,TGI,EKVX NSCLC,80.4 µM
same,TGI,HOP-92 NSCLC,79 µM
same,TGI,RXF 393 renal,45.6 µM
same,TGI,HCT-15 colon,> 100 µM
same,TGI,NCI-H226 lung,62.4 µM

# — PubChem BioAssay (NCI)
